The subject of data set [1] is ergosterol biosynthesis in Candida albicans (NCIM-3471). The data set can be described thus: Ergosterol extraction and quantitation assay (UV sterol profile). The data set is classed as cell-based. As to conditions: C. albicans NCIM3471. The method, then:
Changes in this absorption pattern are therefore indicative of interference in the synthetic pathway of ergosterol.
A single Candida albicans (NCIM-3471) colony from an overnight Sabouraud dextrose agar plate culture was used to inoculate 50 mL of Sabouraud dextrose broth for control and for various concentrations of the molecules. The cultures were incubated for 16 hours and harvested by centrifugation at 2700 rpm (856× g) for five min. The net weight of the cell pellet was determined. Three mL of 25% alcoholic potassium hydroxide solution was added to each pellet and vortex mixed for one min. Cell suspensions were transferred to sterile borosilicate glass screw-cap tubes and were incubated in an 85 °C water bath for one hour. Following incubation, the tubes were allowed to cool. Sterols were then extracted by addition of a mixture of 1 mL of sterile distilled water and 3 mL of n-heptane followed by vigorous vortex mixing for 3 min. The heptane layer was transferred to a clean borosilicate glass screw-cap tube and stored at −20 °C. Prior to analysis, 0.6 mL aliquot of sterol extract was diluted five fold in 100% ethanol and scanned spectrophotometrically between 240 nm and 300 nm with a spectrophotometer (UV-Visible Spectrophotometer 2100, Thermo Fischer Scientific, Waltham, MA, USA). The presence of ergosterol and the late sterol intermediate 24(28)-dehydroergosterol (DHE) in the extracted sample results in a characteristic four-peaked curve. The absence of detectable ergosterol in extracts was indicated by a flat line.
Sterols were extracted from cells and spectral profiles between 240 and 300 nm were determined.

In another data set the test system is Swiss albino mice. As to the kind of experiment: In vivo acute oral toxicity study and gross behavioral study (OECD guideline No. 425). The method, then: The in vivo acute oral toxicity and gross behavioral study results of the newly synthesized compounds 6c and 6f are as listed in Table 12 [26].
Each group, consisting of six Swiss albino mice (18–22 gm weight, overnight fasted), were kept in colony cage at 25 ± 2 °C with 55% relative humidity and 12 h of light and dark cycle. A specified dose of 100, 250, 500, 750, 1000, 1500 and 2000 mg/kg body weight of mice was administered orally as a single dose. The acute toxic symptoms and the behavioral changes produced by the test compounds were observed continuously for 4 h periods at 8th, 12th and 24th h on set of toxic symptoms and the gross behavioral changes were also recorded. These animals were maintained for further 10 days with observation made daily. The in vivo acute oral toxicity study was carried out at animal house at the Y.B. Chavan College of Pharmacy, Aurangabad IAEC approval number CPCSEA/IAEC/P’col-52/2015-16/115 [26].

The nature of data set [2]: In vitro cytotoxicity, Sulforhodamine B (SRB) assay. The data set is classed as cell-based, human. As to conditions: human, range 80 to 0.55 μg/mL. An excerpt:
(§1) Toxicity scrutiny of synthesized compounds at the early phase of research paves the way to clinical trials and reduces the failure of potential therapeutics at later stages of clinical trials. To scrutinize the safety and selectivity of antimicrobial activity of the synthesized compounds, the compounds 6c and 6f were appraised for their toxicity against HeLa (a human cervical cancer cell line) and PC-3 (human prostate cancer cell line) by the Sulforhodamine B (SRB) assay using adriamycin as a standard drug.
(§2) The images were captured using an Eclipse Ti-S Inverted Research Microscope (Nikon, Tokyo, Japan). Image processing software used was NIS-Elements.
A general note: The SRB assay estimates cell density from bound dye.

The subject of data set [3] is HeLa (human cervical cancer cell line). The data set is described as above. The data set is classed as cell-based. To be noted: up to 80 µg/mL.
Excerpt: as §1, §2

The next data set has as its system Escherichia coli 1411. As to the kind of experiment: In vitro antibacterial activity (MIC100, two fold serial dilution, NCCLS). As to conditions: Escherichia coli, 1411, 24 h, read-out: MIC100. The data set is classed as cell-based. The method, then:
(§3) All the synthesized compounds 4(a–f) and 6(a–f) were screened for their in vitro antibacterial activity against Staphylococcus aureus (NCIM-2901), Escherichia coli 1411 (standard laboratory strains) and Escherichia coli SM1411 (an acrAB deficient derivative of 1411). Minimum inhibitory concentration (MIC100) values were determined using methods recommended by National Committee for Clinical Laboratory Standards (NCCLS). Dimethyl sulfoxide (DMSO) was used as solvent control.
(§4) All the synthesized compounds 4(a–f) and 6(a–f) were screened for their in vitro antibacterial activity against Staphylococcus aureus (NCIM-2901) and Escherichia coli 1411 (standard laboratory strains) and Escherichia coli SM1411 (an acrAB deficient derivative of 1411). Minimum inhibitory concentration (MIC100) values were determined using the method recommended by National Committee for Clinical Laboratory Standards (NCCLS). In vitro antibacterial activities of the synthesized compounds 4(a–f) and 6(a–f) were tested in Nutrient Broth (NB) for Bacteria by the two fold serial dilution method. Seeded broth (broth containing microbial spores) was prepared in NB from 24 h old bacterial cultures on nutrient agar (Hi-media) at 37 ± 1 °C. The bacterial suspension was adjusted with sterile saline to a concentration of […]. The synthesized compounds and standard drug D-cycloserine were prepared by two fold serial dilutions to obtain the required concentrations. The tubes were incubated in BOD incubators at 37 ± 1 °C for bacteria. The MICs were recorded by visual observations after 24 h (for bacteria) of incubation.

Data set [4] concerns Escherichia coli SM1411 (an acrAB deficient derivative of 1411). The description is as above. To be noted: 24 h, read-out: MIC100. It counts as cell-based. The method, then: as §3, §4
For data set [5], the system named is Staphylococcus aureus (NCIM-2901). The data set is described as above. It counts as cell-based. As to conditions: Staphylococcus aureus, NCIM2901, 24 h, read-out: MIC100, S. aureus NCIM-2901, average of three readings. As to the method:
as §3, §4

The target of a further data set is DdlB from E.coli (Escherichia coli, UniProt P07862). As to the kind of experiment: D-Alanine-D-alanine ligase (DdlB) enzyme inhibition, malachite green method. The data set is classed as biochemical. As to conditions: 37 °C, 30 min incubation, 5% DMSO. The method, then: The key enzyme involved in the peptidoglycan biosynthesis is D-alanine-D-alanine ligase (Ddl), making it an important target for drug discovery. Inhibition of DdlB as an essential enzyme in either Gram-positive or Gram-negative organisms leads to the loss of cell shape and integrity followed by bacterial death. The synthesized derivatives 4(a–f) and 6(a–f) were tested for their inhibitory activity on DdlB from E.coli. The results are presented as IC50 values.
The D-Ala-adding activity of DdlB ligase was monitored by the detection of orthophosphate generated during the reaction based on the colorimetric malachite green method described by Walsh et al.. […] All the compounds were soluble in the assay mixture containing 5% DMSO. After 30 min of incubation, 100 µL Biomol reagent was added. After 5 min, absorbance was read at 650 nm. Residual activity was calculated with respect to a similar assay without inhibitor. To exclude possible non-specific (promiscuous) inhibitors, representative compounds 4(a–f) and 6(a–f) were also tested in the presence of Tween (0.003%), Triton X-114 (0.005%), and SDS (420 µM), as described by McGovern et al.. No significant differences were found when compared to measurements without detergents.

Some results are limits rather than exact numbers.

By GI50 is commonly meant the concentration giving 50% growth inhibition. Read a low GI50 as more potent growth inhibition. The IC50 is the concentration that inhibits the measured activity by half. Regarding `COc1ccc2occ(C3NC(=S)NC(C)=C3C(=O)NN)c(=O)c2c1` (centres unmarked) [Compound 6f, 4-(6-Methoxy-4-oxo-4H-chromen-3-yl)-6-methyl-2-thioxo-1,2,3,4-tetrahydropyrimidine-5-carbohydrazide], the “ergosterol peak in UV sterol profile at the MIC value” in data set [1] (6f 24 µg/mL, miconazole 25 µg/mL, 281.5 nm) is “almost a flat peak”. Moreover, in data set [1] (MIC/16 to MIC (1.5 to 24 µg/mL)), the “ergosterol peak at 281.5 nm with increasing concentration” value is listed as “intensity of the ergosterol peak at 281.5 nm decreases”. For the same molecule, the “No. of Deaths” value in the data set with Swiss albino mice (Swiss albino mice, single oral dose 100 to 2000 mg/kg) was “N”. Besides, the lethal dose entry in the data set on Swiss albino mice (mice, oral, single dose, no mortality up to 2000 mg/kg) is listed as “above 2000 mg/kg body weight”. Also, the GI50 in data set [2] (HeLa cells, SRB assay) is above 80 µg/mL; in data set [2] (PC-3 cells), above 80 µg/mL. Also, the cell inhibition result in data set [3] is recorded as “cell inhibition did not occur”. Also, the MIC is above 60 µg/mL in the data set with Escherichia coli 1411, above 60 µg/mL in data set [4] and above 200 µg/mL in data set [5]. The molecule also came in with an IC50 on DdlB from E.coli above 400 µM.

For the origin of these results see publication PMC6017654, “Ionic Liquid-Promoted Synthesis of Novel Chromone-Pyrimidine Coupled Derivatives, Antimicrobial Analysis, Enzyme Assay, Docking Study and Toxicity Study” (Molecules : A Journal of Synthetic Chemistry and Natural …, 2018).
